One may read the ED50 as the dose that gives a 50% effect, or the effect in half of the subjects.

Each structure is given as a SMILES string.

In ChEMBL document CHEMBL3244141, “Synthesis and analgesic activity of some long-acting piperidinospiro derivatives of methadone” (1978) one finds ED50 and Ratio data, which are given here for 3 molecules.

The species entered for experiment [1] is Rattus norvegicus. Nature of the experiment: animal or person. The class given is functional. The conditions noted are these: Sprague-Dawley, Tail, po, 24 h.
In experiment [2] the test system is Rattus norvegicus. Kind of experiment: Analgesic activity in po dosed Sprague-Dawley rat assessed as inhibition of warm-water tail withdrawal reflex by measuring dose required to produce withdrawal latency >4 seconds measured every hour of 24 hrs relative to methadone. The class given is functional.

Take `CCC(=O)C(CCN1CCC2(CCCc3ccccc32)CC1)(c1ccccc1)c1ccccc1.O=C(O)C(=O)O`: the 50% effect level in the experiment listed under Rattus norvegicus [1] (ED50) was put at a dose of 0.07 mg/kg. Also, the Ratio in the experiment on Rattus norvegicus [2] came to 212.
In the experiment listed under Rattus norvegicus [1], `CCC(OC(C)=O)C(CCN1CCC2(CCCc3ccccc32)CC1)(c1ccccc1)c1ccccc1.O=S(=O)(O)O` (stereo unspecified) registered an ED50 of 0.14 mg/kg. Besides, the Ratio in the experiment with Rattus norvegicus [2] is 106.
For `CCC(O)C(CCN1CCC2(CCCc3ccccc32)CC1)(c1ccccc1)c1ccccc1` (racemic) the same measures were 0.14 mg/kg and 106.
